# Patent EP0876161B1, “CONTRAST MEDIA” (priority 1996, dated 1997)
# Experiments:
# mice = assay: Maximum tolerated dose (MTD) in mice of formulated complex solution; format: in vivo; conditions: complex given as the formulated solution
# [1] = Osmolality of the formulated complex solution; format: physicochemical
# [2] = Osmolality determined in water, compared to the EGTA complex; format: physicochemical; conditions: concentration 41 mM
substance,measurement,setting,value
Na4[(W3SO3)2(PDTA)3] [Na4[(W3SO3)2(PDTA)3] 11H2O],maximum tolerated dose (MTD),mice,> 6.5 mmoles complex/kg
same,osmolality,"[1]; 79mM solution, pH 6.6",311 mmol/kg
(NMG)4[(W3SO3)2(HO-PDTA)3],maximum tolerated dose (MTD),mice,~2.17 mmoles complex/kg
same,osmolality,"[1]; 153mM solution, pH 6.98",499 mmol/kg
Na4[(W3SO3)2(BDTA)3] [Na4[(W3SO3)2(BDTA)3].12H2O],maximum tolerated dose (MTD),mice,~ 2.55 mmoles complex/kg
same,osmolality,"[1]; 120mM solution, pH 7.4",459 mmol/kg
Na4[(W3SO3)2(OBETA)3] [Na4[(W3SO3)2(OBETA)3].10H2O],maximum tolerated dose (MTD),mice,-4.35 mmoles complex/kg
same,osmolality,"[1]; 107 mM solution, pH 7.03",498 mmol/kg
Na4[(W3SO3)2(EGTA)3] [Na4[(W3SO3)2(EGTA)3].10H2O],maximum tolerated dose (MTD),mice,~7.75 mmoles complex/kg
same,osmolality,[2],199 mmol/kg
same,osmolality,"[1]; 168 mM solution, pH 6.65",685 mmol/kg
Na4[(W3SO3)2(MeO-PDTA)3] [Na4[(W3SO3)2(MeO-PDTA)3] . 7H2O],osmolality,"[1]; 140mM solution, pH 6.5",563 mmol/kg
Na4[(W3S3O)2(EGTA)3] [Na4[(W3S3O)2(EGTA)3] .6H2O],maximum tolerated dose (MTD),mice,~3.95 mmoles complex/kg
same,osmolality,"[1]; 121 mM solution, pH 6.95",517 mmol/kg
